The values that follow come from patent US10179123B2, “2-aryl- and 2-arylalkyl-benzimidazoles as mIDH1 inhibitors” (BAYER PHARMA AKTIENGESELLSCHAFT, priority 2015, dated 2019).

The target in assay [1] is mutated isocitrate dehydrogenase (mIDH) protein, LN229 R132H cells (Homo sapiens (Human), UniProt O75874, R132H). Put plainly: Mutant IDH1 cellular assay (2-HG in medium of LN229 R132H cells). The note with it: 2-HG levels in medium, 24 hours. It is filed as cell-based. The protocol: Mutant IDH1 Cellular Assay
Chain of mutated isocitrate dehydrogenase (mIDH) protein, LN229 R132H cells (O75874 whole entry R132H): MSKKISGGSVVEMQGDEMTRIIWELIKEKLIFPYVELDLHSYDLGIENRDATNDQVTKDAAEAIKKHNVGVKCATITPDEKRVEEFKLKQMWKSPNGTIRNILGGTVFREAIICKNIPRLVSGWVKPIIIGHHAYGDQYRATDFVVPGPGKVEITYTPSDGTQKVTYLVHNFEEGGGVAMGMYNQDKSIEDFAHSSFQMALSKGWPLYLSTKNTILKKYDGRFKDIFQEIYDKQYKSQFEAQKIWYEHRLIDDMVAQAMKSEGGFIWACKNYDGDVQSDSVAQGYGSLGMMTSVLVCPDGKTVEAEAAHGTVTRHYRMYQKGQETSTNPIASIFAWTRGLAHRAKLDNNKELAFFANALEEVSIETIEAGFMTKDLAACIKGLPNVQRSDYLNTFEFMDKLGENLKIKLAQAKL
They were harvested by trypsin and seeded into 96-well plates. Cells were incubated overnight at 37° C. in 5% CO2. The next day test compounds were added to each cell well. The final concentration of DMSO was 0.1% and DMSO controls were included. The plates were then placed in an incubator for 24 hours.
2-HG was measured according to Balss et al. (Acta Neuropathol (2012) 124: 883-891). Briefly, HClO4 was added to each well and the plates were centrifuged. Aliquots are removed and incubated with hydroxyglutarate dehydrogenase (HGDH), diaphorase, NAD+, and resazurin. The conversion of resazurin to resorufin was detected by fluorescence spectroscopy at Ex 540 nm Em 600 nm. The increase in fluorescence is proportional to 2-HG production. IC50 values are determined by interpolation from plots of relative fluorescence vs inhibitor concentration.

For the next assay, the target named is IDH1 R132H enzyme (Homo sapiens (Human), UniProt O75874, R132H). Put plainly: Mutant IDH1 R132H biochemical assay. The note with it: NADPH consumption, luminescent readout; 1.5 nM enzyme, 1 μM NADPH, 250 μM α-KG, 30 minutes, 32° C. Here is the method:
NADPH consumption was measured by luminescent readout. […] The final DMSO concentration was 2.4%. […] Luminescence was measured on a luminescent reader (10 seconds measuring time, 1 second integration period, 30% sensitivity). The decrease in luminescence is proportional to mIDH1 activity. IC50 values are determined by interpolation from plots of relative luminescence versus inhibitor concentration.

Chain of IDH1 R132H enzyme (O75874 whole entry R132H): as above

With `COC(=O)c1ccc2c(c1)nc(Cc1ccc(C(C)C)cc1)n2[C@H]1C[C@@H](C)CC(C)(C)C1` (racemic) [Example 2-7, (±) methyl 2-[4-(propan-2-yl)benzyl]-1-[(cis)-3,3,5-trimethylcyclohexyl]-1H-benzimidazole-5-carboxylate], the IC50 (commonly the midpoint of a concentration-inhibition curve) in assay [1] was 3000 nM; at IDH1 R132H enzyme it was 330 nM. Take `COC(=O)c1cc2nc(Cc3ccc(OC(F)(F)F)cc3)n([C@H]3C[C@@H](C)CC(C)(C)C3)c2cc1C` (racemic) [Example 2-18, (±) methyl 6-methyl-2-[4-(trifluoromethoxy)benzyl]-1-[(cis)-3,3,5-trimethylcyclohexyl]-1H-benzimidazole-5-carboxylate]: the 50% inhibitory concentration (IC50) in assay [1] was 1800 nM; on IDH1 R132H enzyme it was 150 nM. Take `COc1cc2c(cc1C(=O)O)nc(Cc1ccc(OC(F)(F)F)cc1)n2[C@@H]1C[C@H](C)CC(C)(C)C1` (racemic) [Example 2-45]: the IC50 is 160 nM in assay [1] and 30 nM at IDH1 R132H enzyme. For `COc1cc2c(cc1CCC(=O)O)nc(Cc1ccc(OC(F)(F)F)cc1)n2[C@@H]1C[C@H](C)CC(C)(C)C1` (racemic) [Example 2-50], in that order: 210 nM and 30 nM.

In the case of `COC(=O)c1cc2nc(Cc3ccc(OC(F)(F)F)cc3)n([C@H]3C[C@@H](C)CC(C)(C)C3)c2cc1C` (single isomer, unassigned) [Example 2-18-1, methyl 6-methyl-2-[4-(trifluoromethoxy)benzyl]-1-[(cis)-3,3,5-trimethylcyclohexyl]-1H-benzimidazole-5-carboxylate], the IC50 in assay [1] is 2600 nM; against IDH1 R132H enzyme it was 140 nM. The like results for `COc1cc2c(cc1C(=O)O)nc(Cc1ccc(OC(F)(F)F)cc1)n2[C@@H]1C[C@H](C)CC(C)(C)C1` (single isomer, unassigned) [Example 2-45-1] were, in that order, 1600 nM and 300 nM. For the compound `COc1cc2c(cc1CCC(=O)O)nc(Cc1ccc(OC(F)(F)F)cc1)n2[C@@H]1C[C@H](C)CC(C)(C)C1` (single isomer, unassigned) [Example 2-50-1], the concentration for half-maximal inhibition (IC50) came to 3600 nM in assay [1] and 200 nM at IDH1 R132H enzyme. The like results for `CC(C)Oc1ccc(Cc2nc3cc(C(=O)O)ccc3n2[C@H]2C[C@@H](C)CC(C)(C)C2)cc1` (stereo in doubt) [Example 2-32-2] were, in that order, 2500 nM and 300 nM. The like results for `CC(C)Oc1ccc(Cc2nc3cc(C(=O)O)ccc3n2[C@@H]2C[C@H](C)CC(C)(C)C2)cc1` (stereo in doubt) [Example 2-32] were, in that order, 2700 nM and 250 nM. Turning to `CC(C)c1ccc(Cc2nc3cc(C(=O)O)ccc3n2[C@@H]2C[C@H](C)CC(C)(C)C2)cc1` (stereo in doubt) [Example 2-33], the figures for the IC50 (in assay [1]; on IDH1 R132H enzyme) were 350 nM and 50 nM, respectively. For `C[C@H]1C[C@@H](n2c(Cc3ccc(C(F)(F)F)cc3)nc3cc(C(=O)O)ccc32)CC(C)(C)C1` (stereo in doubt) [Example 2-34], in that order: 1900 nM and 120 nM.

As for `C[C@H]1C[C@@H](n2c(Cc3ccc(C(C)(C)C)cc3)nc3cc(C(=O)O)ccc32)CC(C)(C)C1` (stereo in doubt) [Example 2-37], the IC50 in assay [1] is 2500 nM; against IDH1 R132H enzyme, 50 nM. Compound `C[C@H]1C[C@@H](n2c(Cc3ccccc3)nc3cc(C(=O)O)ccc32)CC(C)(C)C1` (stereo in doubt) [Example 2-38] returned an IC50 against IDH1 R132H enzyme of 2400 nM. On the same count and under the same terms, the figure for `C[C@H]1C[C@@H](n2c(Cc3ccccc3OC(F)(F)F)nc3cc(C(=O)O)ccc32)CC(C)(C)C1` (stereo in doubt) [Example 2-39] is 5000 nM; for `C[C@H]1C[C@@H](n2c(Cc3cccc(OC(F)(F)F)c3)nc3cc(C(=O)O)ccc32)CC(C)(C)C1` (stereo in doubt) [Example 2-40] it is 1800 nM. Same read-out and setting: the figure for `Cc1nc(-c2ccccc2)sc1Cc1nc2cc(C(=O)O)ccc2n1[C@@H]1C[C@H](C)CC(C)(C)C1` (stereo in doubt) [Example 2-41] is 2300 nM; for `Cc1[nH]c2ccc(F)cc2c1Cc1nc2cc(C(=O)O)ccc2n1[C@@H]1C[C@H](C)CC(C)(C)C1` (stereo in doubt) [Example 2-42] it is 7000 nM. Same read-out and setting: with `C[C@H]1C[C@@H](n2c(Cc3cn(C)c4ccccc34)nc3cc(C(=O)O)ccc32)CC(C)(C)C1` (stereo in doubt) [Example 2-43] the figure was 6600 nM.

For `Cc1cc2c(cc1C(=O)O)nc(Cc1ccc(OC(F)(F)F)cc1)n2[C@@H]1C[C@H](C)CC(C)(C)C1` (stereo in doubt) [Example 2-44-1], the figures for the half-maximal inhibitory concentration (IC50) (in assay [1]; against IDH1 R132H enzyme) were 400 nM and 20 nM, respectively. The like results for `Cc1cc2c(cc1C(=O)O)nc(Cc1ccc(OC(F)(F)F)cc1)n2[C@H]1C[C@@H](C)CC(C)(C)C1` (stereo in doubt) [Example 2-44-2] were, in that order, 2600 nM and 130 nM.

On to `Cc1cc2c(cc1C(=O)O)nc(Cc1ccc(OC(F)(F)F)cc1)n2[C@@H]1C[C@H](C)CC(C)(C)C1` (stereo in doubt) [Example 2-44], for which the 50% inhibitory concentration (IC50) in assay [1] came out at 170 nM; against IDH1 R132H enzyme, 70 nM. The like results for `COc1cc2c(cc1C(=O)O)nc(Cc1ccc(OC(F)(F)F)cc1)n2[C@H]1C[C@@H](C)CC(C)(C)C1` (stereo in doubt) [Example 2-45-2] were, in that order, 120 nM and 20 nM.

As for `CC(C)Oc1cc2c(cc1C(=O)O)nc(Cc1ccc(OC(F)(F)F)cc1)n2[C@@H]1C[C@H](C)CC(C)(C)C1` (stereo in doubt) [Example 2-46-1], the IC50 is 600 nM in assay [1] and 120 nM against IDH1 R132H enzyme. `CC(C)Oc1cc2c(cc1C(=O)O)nc(Cc1ccc(OC(F)(F)F)cc1)n2[C@H]1C[C@@H](C)CC(C)(C)C1` (stereo in doubt) [Example 2-46-2] came in with a 50% inhibitory concentration (IC50) on IDH1 R132H enzyme of 500 nM.

Consider `CC(C)Oc1cc2c(cc1C(=O)O)nc(Cc1ccc(OC(F)(F)F)cc1)n2[C@@H]1C[C@H](C)CC(C)(C)C1` (stereo in doubt) [Example 2-46], for which the IC50 amounted to 1500 nM in assay [1] and 330 nM at IDH1 R132H enzyme. `C[C@H]1C[C@@H](n2c(Cc3ccc(OC(F)(F)F)cc3)nc3cc(C(=O)O)c(OCC(F)(F)F)cc32)CC(C)(C)C1` (stereo in doubt) [Example 2-47-1] showed an IC50 on IDH1 R132H enzyme of 2000 nM. The same measure, in the same setting: the figure for `C[C@@H]1C[C@H](n2c(Cc3ccc(OC(F)(F)F)cc3)nc3cc(C(=O)O)c(OCC(F)(F)F)cc32)CC(C)(C)C1` (stereo in doubt) [Example 2-47-2] is 650 nM. The same measure, in the same setting: the figure for `C[C@H]1C[C@@H](n2c(Cc3ccc(OC(F)(F)F)cc3)nc3cc(C(=O)O)c(OCC(F)(F)F)cc32)CC(C)(C)C1` (stereo in doubt) [Example 2-47] is 1000 nM. With `Cc1cc2c(cc1CCC(=O)O)nc(Cc1ccc(OC(F)(F)F)cc1)n2[C@@H]1C[C@H](C)CC(C)(C)C1` (stereo in doubt) [Example 2-49], the values for the IC50 (in assay [1]; against IDH1 R132H enzyme) were 280 nM and 80 nM, respectively.

Turning to `COc1cc2c(cc1CCC(=O)O)nc(Cc1ccc(OC(F)(F)F)cc1)n2[C@H]1C[C@@H](C)CC(C)(C)C1` (stereo in doubt) [Example 2-50-2], the half-maximal inhibitory concentration (IC50) in assay [1] is 380 nM; on IDH1 R132H enzyme, 20 nM.

Turning to `COC(=O)c1ccc2c(nc(Cc3ccc(OC(F)(F)F)cc3)n2C2CC(C)(C)CC(C)(C)C2)c1F` [Example 2-22, methyl 4-fluoro-1-(3,3,5,5-tetramethylcyclohexyl)-2-[4-(trifluoromethoxy)benzyl]-1H-benzimidazole-5-carboxylate], half-maximal inhibition against IDH1 R132H enzyme (IC50) was put at 800 nM. In other words, the sub-micromolar range.

As for `CC1(C)CC(n2c(Cc3ccc(OC(F)(F)F)cc3)nc3c(F)c(C(=O)O)ccc32)CC(C)(C)C1` [Example 2-48], the IC50 in assay [1] was determined as 800 nM; against IDH1 R132H enzyme, 80 nM. Regarding `CC1(C)CC(n2c(Cc3ccc(OC(F)(F)F)cc3)nc3c(F)c(CCC(=O)O)ccc32)CC(C)(C)C1` [Example 2-52, 3-{4-fluoro-1-(3,3,5,5-tetramethylcyclohexyl)-2-[4-(trifluoromethoxy)benzyl]-1H-benzimidazol-5-yl}Propanoic Acid], the values for the IC50 (in assay [1]; against IDH1 R132H enzyme) were 1800 nM and 80 nM, respectively.
